62 molecules from a melting point compilation (Tetko et al.; mined from patent text by program, amines drawn as free bases though some values may be those of a salt) can be followed below.

Structures are written as SMILES. Some results are limits rather than exact numbers.

As a reminder, the melting point is the temperature of the solid-liquid transition. Molecule `Clc1cccc2c1C1(CO1)c1cccc(Cl)c1C21CO1` (configuration not stated) registered a melting point of 172 to 178 °C.

As for `CC(=O)Nc1cc(Br)ccc1Sc1ccc([N+](=O)[O-])cc1[N+](=O)[O-]`, the melting point is 194 to 196 °C.

On to `Cn1cc(C(=O)NCCC2CCN(S(=O)(=O)NC(=O)NC3CCCCC3)CC2)c(=O)n(C)c1=O`, for which the melting point was in the range of 205 to 207 °C.

As for `Cc1nn(C)c2cnc(-c3ccc(C(F)(F)F)cc3)nc12`, the melting point was in the range of 286 to 289 °C.

`O=C1NC(=O)C(c2cn(CCCO)c3ccc(F)cc23)=C1c1cccc(NCC(O)CO)c1` (configuration not stated) gave a melting point of 118 to 125 °C.

In the case of `N#Cc1ccnc(N2CCOCC2)c1`, the melting point lay within 135 to 136 °C.

For `CCCc1c(OCCCOc2cccc3c2CCCC3)ccc2c1OC(CCC(=O)O)(CCC(=O)N1CCCC1)CC2=O` (configuration not stated), the melting point fell in the range of 160 to 164 °C.

For the molecule `COc1cccc(CN2CCC(c3cc(-c4ccc(Cl)cc4)[nH]n3)CC2)c1`, the melting point was 50 to 52 °C.

`CC(C(=O)N1c2ccccc2N(C)C(=O)c2cnc(-c3ccccc3)nc21)N1CCCCC1` (configuration not stated) had a melting point of 214 to 215 °C.

`C=CCC(O)(Cn1cncn1)C1(Cl)CC1` (configuration not stated) came in with a melting point of 75 to 76 °C.

As for `CC(C)n1nc(-c2cc(C(N)=O)c(N)nc2-c2ccccc2)ccc1=O`, the melting point is over 250 °C.

Regarding `CCOc1ccc(C=CC(=O)c2c(O)cc(OC)cc2OC)cc1`, the melting point turned out to be 136 °C.

Consider `O=C(O)c1cn(-c2nncs2)c2cc(F)c(F)cc2c1=O`, for which the melting point is 233 to 236 °C.

With `CN1CCN(C2=Nc3ccccc3N(C=O)c3ccncc32)CC1`, the melting point was 196 °C.

The molecule `O=C1CC2CSc3sc(Br)cc3C2=NN1c1ccc(Cl)cc1` (configuration not stated) returned a melting point of 169 to 170 °C.

In the case of `COc1cc(Oc2cccc(C(F)(F)F)c2)nc(C(=O)NCCSCCF)c1`, the melting point lay in the range of 82 to 84 °C.

Molecule `CCCCC1(SCC)CCC2C3CCC4=CC(=O)C=CC4(C)C3(F)C(O)CC21C` (configuration not stated) had a melting point of 185 to 187 °C.

Take `CCCCCCC(C)Oc1ccc(N=Cc2ccccc2)cc1` (configuration not stated): the melting point was determined as 47.3 °C.

In the case of `Cn1c(C(=O)OC(C)(C)C)c(Br)c2cc(OCc3ccccc3)ccc21`, the melting point was 97 to 99 °C.

`CN(C)C=C(C(=O)c1ccccc1)c1ccccc1` yielded a melting point of 128 to 133 °C.

On to `CC(Nc1nc(-c2ccccc2)cs1)c1ccc(COc2ccc(CC(=O)O)cc2)cc1` (configuration not stated), for which the melting point is 116 to 118 °C.

`COc1cc(C(=O)c2nccn2C)cc([N+](=O)[O-])c1OC` came in with a melting point of 144 to 145 °C.

`O=C(c1ccc(-c2cnc3c(c2)N(Cc2cc(Cl)ccc2Cl)C(=O)CN3)cc1)N1CCC(N2CCCC2)CC1` had a melting point of over 200 °C.

For `O=C(O)c1cccc(-c2ccc3c(c2)N(Cc2cc(Cl)ccc2Cl)CC3)c1`, the melting point lay within 198 to 199 °C.

`CC1(C(=O)O)CCCCC1O` (configuration not stated): the melting point stood at 97 °C.

In turn, `CC1(C)COC(c2sccc2C2c3cc4c(cc3OCC2[N+](=O)[O-])OCO4)=N1` (configuration not stated) showed a melting point of 138 to 140 °C.

Turning to `CCOCc1nc2c(N)nc3ccccc3c2n1CC(C)(C)CS(=O)(=O)NCc1ccc(OC)cc1`, the melting point is 203 to 205 °C.

Molecule `CC(=O)Nc1ccc2nc(CN(C(C)C)C(C)C)ccc2c1` returned a melting point of 147 to 148 °C.

For `O=c1[nH]sc2cc(Cl)ccc12`, the melting point fell in the range of 271 to 272 °C.

`N#Cc1ccc(C2(COc3cccc4cc(NS(=O)(=O)C(F)(F)F)ccc34)N=CNO2)cc1` (configuration not stated) showed a melting point of 184 to 185 °C.

As for `Cc1ccc(N2C(=O)C(O)=C(C(=O)c3ccc(C(C)C)cc3)C2c2ccc(OC(F)(F)F)cc2)nn1` (configuration not stated), the melting point is 221 °C.

As to `CC(=O)Nc1cc(C=CN(C)C)c([N+](=O)[O-])cn1`, the melting point lay within 193 to 196 °C.

In turn, `C#CCOc1ccc(C(=O)C=Cc2ccc(C#N)cc2)c(O)c1` displayed a melting point of 188 to 190 °C.

In turn, `COc1cc(F)ccc1-c1ccc(S(=O)(=O)N2c3ccccc3CC2C(=O)NCc2ccccc2NCCC(=O)O)cc1` (configuration not stated) yielded a melting point of 121 to 125 °C.

For `CNC(=O)ON=C1SCOC1C` (configuration not stated), the melting point lay within 70 to 71.5 °C.

As for `COc1ccc(N2CCN(c3c(C)c(C)c4c(c3C)CC(C)(CN(Cc3ccccc3)Cc3ccccc3)O4)CC2)cc1` (configuration not stated), the melting point fell in the range of 168 to 170 °C.

The molecule `Cc1nc(N2CCCC(C(O)c3ccccc3)C2=O)sc1C(=O)NCc1ccccc1` (configuration not stated) yielded a melting point of 74 to 75 °C.

In the case of `CCN1c2ncc(C#Cc3cccnc3)cc2C(=O)N(C)c2cccnc21`, the melting point is 178 to 180 °C.

In the case of `CNC(=O)c1cc(Cl)cc(C)c1N`, the melting point lay in the range of 141 to 143 °C.

In turn, `Cc1noc(C)c1S(=O)(=O)n1cnc2cnccc21` displayed a melting point of 130 to 135 °C.

Molecule `Cc1cc(O)cc(C)c1-c1ccccc1` displayed a melting point of 128 to 130 °C.

On to `Nc1nccc2cc(CNC(=O)C3CCCN3)ccc12` (configuration not stated), for which the melting point lay within 140 to 142 °C.

Molecule `Cc1cccc([C@H]2[C@H](C(=O)Nc3ccc(F)c(F)c3)C2(C)C)c1` (relative stereo) returned a melting point of 110 to 113 °C.

In the case of `OCc1cccc2c1nc(-c1c(F)cccc1F)n2Cc1c(F)cccc1F`, the melting point is 157 to 158 °C.

`CCc1cn(C[C@@H](C)O)c2ccc(F)c(Cl)c12`: the melting point was in the range of 87 to 88 °C.

`COc1cccc2c(NCc3ccccc3C)nccc12` had a melting point of 121 to 125 °C.

In turn, `CN1CCC(C(O)(c2ccc(F)cc2)c2ccc3ccccc3c2)CC1` (configuration not stated) displayed a melting point of 164 to 169 °C.

As for `COC(C)c1cc([N+](=O)[O-])ccc1C` (configuration not stated), the melting point lay within 35 to 37 °C.

`C1=C(c2ccc3ccccc3c2)CCC2(C1)CCNCC2`: the melting point was in the range of 137 to 141 °C.

`COc1ccc(C#Cc2ccc(OC3CN4CCC3CC4)cc2)cc1` (configuration not stated) yielded a melting point of 112 to 115 °C.

With `COC(=O)CC/C(C)=C/Cc1c(OC)c(C)c2c(c1OS(=O)(=O)C(F)(F)F)C(=O)OC2`, the melting point lay within 53 to 55 °C.

Turning to `N#CCCCOc1ccc(CNc2ccc(-n3nc(-c4cccnc4)cc3C#N)cc2)cc1`, the melting point lay within 128 to 129 °C.

Molecule `CCCCCCCCc1c(C)[nH]c(C)c(C#N)c1=O` showed a melting point of 205 to 206 °C.

`CCOc1cc(Cc2cnc(N)nc2N)cc2c1OC(C)(C)C=C2C#CC(C)O` (configuration not stated) yielded a melting point of 218 to 219 °C.

`Cc1c(C(=O)c2sc(Nc3ccc(S(N)(=O)=O)cc3)nc2N)ncn1C` showed a melting point of 293 to 294 °C.

The molecule `Cn1c(=O)c2c(C(=O)O)nc(O)n2c2ccccc21` returned a melting point of over 300 °C.

The molecule `O=C(Nc1ccc(Cl)cc1)c1c(O)c2cccnc2n(-c2ccccc2)c1=O` displayed a melting point of 281 to 286 °C.

Molecule `CNC(=O)C(Cc1c[nH]c2ccccc12)NC(=O)Nc1n[nH]c(=S)s1` (configuration not stated) had a melting point of 205 to 210 °C.

Molecule `O=C(O)c1cc2ccnc(N(Cc3ccccc3)Cc3ccccc3)c2[nH]1` registered a melting point of 114 to 120 °C.

Molecule `CCCCCCCCCCN1C(=O)C2CC2(c2ccc(N)cc2)C1=O` (configuration not stated) displayed a melting point of 92 to 94 °C.

Molecule `CN(Cc1ccccc1)C1c2ccccc2CC1O` (configuration not stated) yielded a melting point of 64 °C.

Regarding `Cc1cc(NCc2ccc(-c3ccccc3-c3nnn(C(c4ccccc4)(c4ccccc4)c4ccccc4)n3)cc2)c(I)c(C)n1`, the melting point lay in the range of 209 to 211 °C.
